PubChem BioAssay (NCI)
Where “and” joins values, the source holds several entries; their conditions need not be identical. Equal entries are not always repeated.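 Dose response: 5 concentrations. Exposure: 48 h. Format: 96-well plates. Endpoint: linear interpolation; highest concentration if not reached. GI50: concentration for 50% inhibition of growth. TGI denotes the concentration required for complete inhibition of growth.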

Experiments:
Assay in all cases: growth of human tumour cells (NCI), 48 h
SF-268 CNS = test system: SF-268 CNS
COLO 205 colon = test system: COLO 205 colon
K-562 leukemia = test system: K-562 leukemia
EKVX NSCLC = test system: EKVX NSCLC
NCI-H226 lung = test system: NCI-H226 lung
SN12C renal = test system: SN12C renal
SW-620 colon = test system: SW-620 colon
U251 CNS = test system: U251 CNS
CCRF-CEM leukemia = test system: CCRF-CEM leukemia
RXF 393 renal = test system: RXF 393 renal

Compound | GI50 (SF-268 CNS) | TGI (SF-268 CNS) [µM] | GI50 (COLO 205 colon) [µM] | TGI (COLO 205 colon) [µM] | GI50 (K-562 leukemia) | TGI (K-562 leukemia) [µM] | GI50 (EKVX NSCLC) | TGI (EKVX NSCLC) [µM] | GI50 (NCI-H226 lung) | TGI (NCI-H226 lung) [µM] | GI50 (SN12C renal) | TGI (SN12C renal) [µM] | GI50 (SW-620 colon) [µM] | TGI (SW-620 colon) [µM] | GI50 (U251 CNS) | TGI (U251 CNS) [µM] | GI50 (CCRF-CEM leukemia) | TGI (CCRF-CEM leukemia) [µM] | GI50 (RXF 393 renal) | TGI (RXF 393 renal) [µM]
Cc1nc2c(c(N3CCCc4ccccc43)n1)CCC2 | 0.0102 µM | > 100 | < 0.01 | 0.0111 | < 0.01 µM | > 100 | < 0.01 µM | > 100 | < 0.01 µM | 40.5 | 0.0161 µM | > 100 | < 0.01 | > 100 | < 0.01 µM | > 100 | < 0.01 µM | > 100 | – | –
Cn1c(=O)c(Oc2ccc(F)cc2F)cc2cnc(NC(C)(C)CO)nc21 | > 25 µM | > 25 | > 25 | > 25 | > 25 µM | > 25 | – | – | > 25 µM | > 25 | > 25 µM | > 25 | > 25 | > 25 | > 25 µM | > 25 | > 25 µM | > 25 | > 25 µM | > 25
O=C(Nc1ccc(Cc2ccccc2)cc1)Nc1nn(C(=O)Nc2ccc(Cc3ccccc3)cc2)c2ccccc12 | 75.6 µM | > 100 | > 100 | > 100 | 40.5 µM | > 100 | > 100 µM | > 100 | > 100 µM | > 100 | > 100 µM | > 100 | > 100 | > 100 | 70.2 µM | > 100 | – | – | 30.4 µM | > 100
CSc1c(C2=C(c3cn(C)c4ccccc34)C(=O)NC2=O)c2ccccc2n1C | 1.51 µM | > 25 | 0.675 | > 25 | 0.665 µM | > 25 | – | – | 3.21 µM | > 25 | 1.49 µM | > 25 | 0.736 | > 25 | 1.23 µM | > 25 | 0.793 µM | > 17 | 0.273 µM | 1.4
CC(CC(=O)N1C(=O)C(C)(C)[C@@H](O)[C@H]1CC(C)C(Cl)(Cl)Cl)C(Cl)(Cl)Cl (stereo partly drawn) | – | > 100 | – | > 100 | – | > 100 | – | > 100 | – | > 100 | – | > 100 | – | > 100 | – | > 100 | – | > 100 | – | –
C=C(CN1CCN(c2ccc(C(F)(F)F)cc2)CC1)c1ccc(C(=O)Nc2ccccc2N)cc1 | 6.78 µM | > 100 | > 100 | > 100 | 0.302 µM | > 36.5 | 12.3 µM | > 100 | 7.51 µM | > 60.5 | 6.37 µM | > 100 | > 78.8 | > 100 | 6.25 µM | 31 | – | – | 1.97 µM | 6
N#CC(/C(CCC(=O)Nc1ccc(Cl)cc1)=N/NC(=O)c1cc2ccccc2cc1O)c1ccccc1 (stereo not drawn) | – | > 100 | – | > 100 | – | – | – | > 100 | – | > 100 | – | > 100 | – | > 100 | – | > 100 | – | 49.4 | – | > 100
CCOC(=O)C(=O)Nc1nc2c(OCC)cccc2s1 | – | > 100 | – | > 100 | – | > 100 | – | > 100 | – | > 100 | – | > 100 | – | > 100 | – | > 100 | – | – | – | > 100
COC(=O)C1=C(O)[C@H](C(=O)OC)C2(O)C(C(=O)OC)[C@H](c3ccc(OC(=O)C(C)c4ccccc4)cc3)C[C@@H]1[C@@H]2C(=O)OC (stereo partly drawn) | 17.2 µM | > 50 | 13.7 | 36.3 | 19.4 µM | > 50 | 32.5 µM | > 50 | – | – | 23.7 µM | > 50 | 21 | > 50 | 27.4 µM | > 50 | – | – | 13.7 µM | > 50
Cc1ccc(Nc2nccc(N(C)c3ccc4c(C)n(C)nc4c3)n2)cc1S(N)(=O)=O | 5.26 µM and 3.17 µM and 9.96 µM | > 100 | – | – | 3.05 µM and 0.454 µM and 4.21 µM | > 100 | 3.22 µM and 4.11 µM and 15.2 µM | > 100 | 0.781 µM and 0.425 µM and 1.41 µM | > 100 | 3.77 µM and 2.65 µM and 6.38 µM | > 100 | – | > 100 | 3.35 µM and 0.95 µM and 8.12 µM | > 100 | 4.37 µM and 7.01 µM and 8.07 µM | > 100 | 2.43 µM and 0.634 µM and 2.41 µM | –
NCCc1ccc(S(=O)(=O)F)cc1 | > 100 µM | > 100 | > 100 | > 100 | 80.7 µM | > 100 | 43.3 µM | > 100 | – | – | – | – | 52.8 | > 100 | 95.1 µM | > 100 | – | – | 37.8 µM | 98.2
CC(=O)OC1CCC2(C)C(CCC3C2CC(=O)C2(C)C3CC(N3CC3)C2C(C)=O)C1 (stereo not drawn) | – | 27.1 | – | 35.7 | – | 89.7 | – | 40.9 | – | 37.8 | – | 61 | – | > 100 | – | 37.8 | – | – | – | 42.3
N/N=C1\C(=O)N(Cc2ccccc2)C(=O)C1C(=O)NCc1ccccc1 (stereo not drawn) | – | > 100 | – | > 100 | – | > 100 | – | > 100 | – | – | – | > 100 | – | > 100 | – | > 100 | – | > 100 | – | > 100
COc1cc2c(c(OC)c1OC)-c1ccc(O)cc1[C@@H](NC(C)=O)CC2 | 0.0641 µM | > 29.1 | 0.0319 | 0.0859 | 0.0376 µM | > 100 | 0.0577 µM | > 100 | 0.117 µM | > 100 | 0.0897 µM | > 100 | 0.0409 | > 100 | 0.0465 µM | > 100 | 0.0318 µM | 1.62 | – | –
CSC(=NC#N)S/C=C/C(=O)c1ccccc1 | 43.8 µM | > 100 | 35.2 | > 100 | 32.7 µM | > 100 | 86.4 µM | > 100 | – | – | 39.4 µM | > 100 | 18 | 43.3 | 40.3 µM | > 100 | 1.77 µM | 15 | 31.1 µM | 79
N.N.N.N.N.NC(=O)[O-].[Co+3].[I-] | > 100 µM | > 100 | > 100 | > 100 | > 100 µM | > 100 | > 100 µM | > 100 | – | – | > 100 µM | > 100 | > 100 | > 100 | > 100 µM | > 100 | > 100 µM | > 100 | – | –
